Source: BindingDB's records for doi:10.1016/j.bmcl.2013.03.113 (Vanderbilt University Medical Center, 2013)

Molecular target: T1, Bone morphogenetic protein 4 (Mus musculus, UniProt P21275)
T1 sequence (P21275 whole entry): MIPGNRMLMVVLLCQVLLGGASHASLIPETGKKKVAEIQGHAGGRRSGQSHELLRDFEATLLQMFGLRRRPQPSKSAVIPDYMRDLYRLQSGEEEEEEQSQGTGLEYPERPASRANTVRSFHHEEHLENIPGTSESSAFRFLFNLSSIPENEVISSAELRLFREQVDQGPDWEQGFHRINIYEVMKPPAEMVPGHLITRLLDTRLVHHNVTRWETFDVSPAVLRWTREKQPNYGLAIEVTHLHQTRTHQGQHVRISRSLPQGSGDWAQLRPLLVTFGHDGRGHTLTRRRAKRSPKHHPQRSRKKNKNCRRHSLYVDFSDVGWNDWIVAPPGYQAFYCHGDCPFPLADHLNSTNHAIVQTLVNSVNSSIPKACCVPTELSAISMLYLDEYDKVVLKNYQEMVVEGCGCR
Experiment: Inhibition of BMP4 in mouse C2C12BRA cells after 14 hrs by luciferase reporter gene assay

IC50 [nM]	SMILES
418	c1ccc2c(-c3cnn4cc(-c5ccc(N6CCOCC6)cc5)cnc34)csc2c1
529	Clc1cc(-c2cnn3cc(-c4ccc(N5CCOCC5)cc4)cnc23)ccn1
